Experimental findings from US10160747B2, “Compounds and methods for kinase modulation, and indications therefor” (Plexxikon Inc., priority 2016, dated 2018) are described below.

The subject of test [1] is MOLM-14 D835Y (endogenous FLT3 ITD and transfected FLT3 D835Y). The experiment in a line: MOLM-14 D835Y cell proliferation assay (CellTiter-Glo). The format is cell-based. The settings on record: Homo sapiens, MOLM-14, 72 h; 3 d growth, GMean. The method, boiled down:
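MOLM-14 cells (FLT3 ITD) carrying D835Y or F691L, 1×10^4 cells/well, eight 1:3 dilutions from 1 μM final, 0.2% DMSO, 3 days at 37 °C, 5% CO2. Viability by CellTiter-Glo luminescence (ATP content); IC50 from concentration-response.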
A general note: ATP-based viability assays read luminescence as a measure of living cells.

The next test concerns the target T1, FLT3-ITD (Homo sapiens, UniProt P36888).
T1 sequence (P36888 1-993): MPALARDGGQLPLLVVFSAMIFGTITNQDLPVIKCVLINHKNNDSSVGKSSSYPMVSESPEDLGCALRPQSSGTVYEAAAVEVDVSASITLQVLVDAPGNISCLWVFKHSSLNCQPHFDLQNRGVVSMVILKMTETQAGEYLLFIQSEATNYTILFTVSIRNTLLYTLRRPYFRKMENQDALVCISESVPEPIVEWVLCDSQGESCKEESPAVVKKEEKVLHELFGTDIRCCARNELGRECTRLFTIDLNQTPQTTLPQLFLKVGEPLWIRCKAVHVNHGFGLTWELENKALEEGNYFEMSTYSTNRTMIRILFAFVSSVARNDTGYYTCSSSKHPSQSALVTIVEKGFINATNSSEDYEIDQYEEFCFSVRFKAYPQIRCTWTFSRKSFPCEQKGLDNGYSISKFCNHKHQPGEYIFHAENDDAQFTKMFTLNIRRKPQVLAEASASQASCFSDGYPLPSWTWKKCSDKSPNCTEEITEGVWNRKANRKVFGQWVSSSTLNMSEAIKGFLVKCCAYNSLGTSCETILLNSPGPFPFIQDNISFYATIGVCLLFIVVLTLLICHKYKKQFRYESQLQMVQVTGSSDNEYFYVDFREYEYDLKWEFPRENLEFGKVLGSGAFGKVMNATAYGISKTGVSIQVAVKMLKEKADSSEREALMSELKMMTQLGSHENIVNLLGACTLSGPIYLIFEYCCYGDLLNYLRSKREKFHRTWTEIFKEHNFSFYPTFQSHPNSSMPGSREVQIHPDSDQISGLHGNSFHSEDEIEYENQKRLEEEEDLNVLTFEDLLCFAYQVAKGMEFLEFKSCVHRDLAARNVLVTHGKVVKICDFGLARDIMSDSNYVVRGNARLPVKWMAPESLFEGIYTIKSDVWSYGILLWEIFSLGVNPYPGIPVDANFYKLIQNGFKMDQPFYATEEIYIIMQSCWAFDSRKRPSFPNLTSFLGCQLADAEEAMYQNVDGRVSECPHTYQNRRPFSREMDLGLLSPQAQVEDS
The experiment in a line: FLT3-ITD recombinant enzyme kinase assay (AlphaScreen). Format: biochemical. The following applies: 8 pt; read-out: FLT3_ITD 8 pt: IC50. How it is done:
In order to determine the effect of compounds on FLT3 catalytic activity, kinase assays using recombinant enzymes and AlphaScreen® technology have been established. The catalytic activity of c-kit activity was also measured to determine selectivity of the compounds. When the kinases are catalytically active, they phosphorylate a biotinylated peptide substrate on tyrosine residues. Using AlphaScreen® technology, the ability of the compounds to affect the catalytic activity of the kinases can be measured quantitatively. The peptide substrate is immobilized by the AlphaScreen® Streptavidin Donor beads and, upon phosphorylation by a tyrosine kinase, can bind to AlphaScreen® Anti-Phosphotyrosine (PY20) Acceptor beads. Upon excitation of these beads with laser light at 680 nm, singlet oxygen is produced. This singlet oxygen is rapidly quenched, unless the AlphaScreen® Anti-Phosphotyrosine (PY20) Acceptor beads are in close proximity, in which case a proximity signal can be measured at 580 nm. In the presence of catalytic activity, there is a very strong proximity signal. Selective kinase inhibitors affect a decrease in this proximity signal through a decrease in tyrosine phosphorylation of the peptide substrate.
The assay was performed as summarized below.
Poly (Glu4-Tyr) Peptide, biotin conjugate [Biotin-GG(EEEEY)10EE] (SEQ ID NO: 4)
Final concentration=30 nM
Adenosine Triphosphate (ATP)
Final concentration for IC50 determination=10 μM (FLT3-D835Y or FLT3-ITD) or 100 μM (c-KIT)
AlphaScreen® Phosphotyrosine (PY20) Assay Kit
Final concentration=10 μg/mL
Dilute compounds in DMSO to 20× final concentration.
Add 1 μL of compound to each well of 384 well reaction plate (Perkin Elmer #6005359).
Mix enzyme and Poly (Glu4-Tyr) Peptide substrate at 1.33× final concentration in assay buffer.
Mix ATP at 5× final concentration in assay buffer.
Add 15 μL enzyme/substrate mixture to the reaction plate.
Add 4 μL of ATP to the reaction plate.
Mix Streptavidin Donor beads at 6× final concentration in Stop/Detection buffer.
Add 5 μL Streptavidin Donor beads to the reaction plate. Centrifuge 1 minute, shake to mix, and incubate at room temperature for 20 minutes.
Mix Anti-Phosphotyrosine (PY20) Acceptor beads at 6× final concentration in Stop/Detection buffer.
Add 5 μL Anti-Phosphotyrosine (PY20) beads to the reaction plate.
Centrifuge 1 minute, shake to mix, and incubate at room temperature for 60 minutes.
Read plate on Wallac EnVision™ 2103 Multilabel Reader.
In general terms: In Alpha technology, singlet oxygen from a donor bead excites a nearby acceptor bead.

pIC50: −log10 of the molar value.

For `Cc1cc(-c2cnc3[nH]c(-c4ccccc4)cc3c2)ccc1CC(=O)Nc1cccc(C(F)(F)F)c1` [Compound P-0001, 2-[2-methyl-4-(2-phenyl-1H-pyrrolo[2,3-b]pyridin-5-yl)phenyl]-N-[3-(trifluoromethyl)phenyl]acetamide], the pIC50 (in test [1]; on FLT3-ITD) was 5.00 to 10.00 each time.
With `O=C(Cc1ccc(-c2cnc3[nH]c(-c4ccccc4)cc3c2)c(F)c1)Nc1cccc(C(F)(F)F)c1` [Compound P-0003, 2-[3-fluoro-4-(2-phenyl-1H-pyrrolo[2,3-b]pyridin-5-yl)phenyl]-N-[3-(trifluoromethyl)phenyl]acetamide], the pIC50 (in test [1]; at FLT3-ITD) was 5.00 to 10.00 throughout.
On to `O=C(Cc1ccc(-c2cnc3[nH]c(-c4ccccc4)cc3c2)cc1F)Nc1ccnc(C(F)(F)F)c1` [Compound P-0004, 2-[2-fluoro-4-(2-phenyl-1H-pyrrolo[2,3-b]pyridin-5-yl)phenyl]-N-[2-(trifluoromethyl)-4-pyridyl]acetamide], for which the pIC50 (in test [1]; at FLT3-ITD) was 5.00 to 10.00 in each case.
Turning to `O=C(Cc1ccc(-c2cnc3[nH]c(-c4ccccc4)cc3c2)cn1)Nc1ccnc(C(F)(F)F)c1` [Compound P-0005, 2-[5-(2-phenyl-1H-pyrrolo[2,3-b]pyridin-5-yl)-2-pyridyl]-N-[2-(trifluoromethyl)-4-pyridyl]acetamide], the pIC50 (in test [1]; on FLT3-ITD) was 5.00 to 10.00 each time.
Regarding `Cc1ncc(NC(=O)Cc2ccc(-c3cnc(Nc4cnn(C)c4)nc3)cc2F)cc1C(F)(F)F` [Compound P-0091, 2-[2-fluoro-4-[2-[(1-methylpyrazol-4-yl)amino]pyrimidin-5-yl]phenyl]-N-[6-methyl-5-(trifluoromethyl)-3-pyridyl]acetamide], the pIC50 (in test [1]; on FLT3-ITD) was 5.00 to 10.00 throughout.
Take `Cn1cc(Nc2ncc(-c3ccc(CC(=O)Nc4cnc(Cl)c(C(F)(F)F)c4)c(F)c3)cn2)cn1` [Compound P-0092, N-[6-chloro-5-(trifluoromethyl)-3-pyridyl]-2-[2-fluoro-4-[2-[(1-methylpyrazol-4-yl)amino]pyrimidin-5-yl]phenyl]acetamide]: the pIC50 (in test [1]; at FLT3-ITD) was 5.00 to 10.00 in each case.
For the compound `CC(C)c1cc(NC(=O)Cc2ccc(-c3cnc(Nc4cnn(C)c4)nc3)cc2F)ccn1` [Compound P-0094, 2-[2-fluoro-4-[2-[(1-methylpyrazol-4-yl)amino]pyrimidin-5-yl]phenyl]-N-(2-isopropyl-4-pyridyl)acetamide], the pIC50 (in test [1]; at FLT3-ITD) was 5.00 to 10.00 each time.
Consider `Cn1cc(Nc2ncc(-c3ccc(CC(=O)Nc4ccc(C(F)(F)F)nc4)cc3)cn2)cn1` [Compound P-0095, 2-[4-[2-[(1-methylpyrazol-4-yl)amino]pyrimidin-5-yl]phenyl]-N-[6-(trifluoromethyl)-3-pyridyl]acetamide], for which the pIC50 (in test [1]; at FLT3-ITD) was 5.00 to 10.00 each time.
Turning to `Cn1cnc(Nc2ncc(-c3ccc(CC(=O)Nc4cc(C(F)(F)F)ccn4)c(F)c3)cn2)c1` [Compound P-0096, 2-[2-fluoro-4-[2-[(1-methylimidazol-4-yl)amino]pyrimidin-5-yl]phenyl]-N-[4-(trifluoromethyl)-2-pyridyl]acetamide], the pIC50 (in test [1]; on FLT3-ITD) was 5.00 to 10.00 each time.
For `Cn1cc(Nc2ncc(-c3ccc(CC(=O)Nc4ccnc(C5CC5)c4)cc3)cn2)cn1` [Compound P-0097, N-(2-cyclopropyl-4-pyridyl)-2-[4-[2-[(1-methylpyrazol-4-yl)amino]pyrimidin-5-yl]phenyl]acetamide], the pIC50 (in test [1]; on FLT3-ITD) was 5.00 to 10.00 throughout.
On to `Cn1cc(Nc2ncc(-c3ccc(CC(=O)Nc4ccnc(C5CC5)c4)c(F)c3)cn2)cn1` [Compound P-0098, N-(2-cyclopropyl-4-pyridyl)-2-[2-fluoro-4-[2-[(1-methylpyrazol-4-yl)amino]pyrimidin-5-yl]phenyl]acetamide], for which the pIC50 (in test [1]; at FLT3-ITD) was 5.00 to 10.00 each time.
Turning to `Cc1ncc(NC(=O)Cc2ccc(-c3cnc(Nc4cn(C)cn4)nc3)cc2F)cc1C(F)(F)F` [Compound P-0099, 2-[2-fluoro-4-[2-[(1-methylimidazol-4-yl)amino]pyrimidin-5-yl]phenyl]-N-[6-methyl-5-(trifluoromethyl)-3-pyridyl]acetamide], the pIC50 (in test [1]; on FLT3-ITD) was 5.00 to 10.00 each time.
On to `Cn1cnc(Nc2ncc(-c3ccc(CC(=O)Nc4cnc(Cl)c(C(F)(F)F)c4)c(F)c3)cn2)c1` [Compound P-0100, N-[6-chloro-5-(trifluoromethyl)-3-pyridyl]-2-[2-fluoro-4-[2-[(1-methylimidazol-4-yl)amino]pyrimidin-5-yl]phenyl]acetamide], for which the pIC50 (in test [1]; at FLT3-ITD) was 5.00 to 10.00 in each case.
As for `COc1ncc(NC(=O)Cc2ccc(-c3cnc(Nc4cn(C)cn4)nc3)cc2F)cc1C(F)(F)F` [Compound P-0101, 2-[2-fluoro-4-[2-[(1-methylimidazol-4-yl)amino]pyrimidin-5-yl]phenyl]-N-[6-methoxy-5-(trifluoromethyl)-3-pyridyl]acetamide], the pIC50 (in test [1]; on FLT3-ITD) was 5.00 to 10.00 each time.
Consider `Cn1cnc(Nc2ncc(-c3ccc(CC(=O)Nc4cc(C(C)(F)F)ccn4)c(F)c3)cn2)c1` [Compound P-0102, N-[4-(1,1-difluoroethyl)-2-pyridyl]-2-[2-fluoro-4-[2-[(1-methylimidazol-4-yl)amino]pyrimidin-5-yl]phenyl]acetamide], for which the pIC50 (in test [1]; on FLT3-ITD) was 5.00 to 10.00 throughout.
Take `Cn1cnc(Nc2ncc(-c3ccc(CC(=O)Nc4cncc(C(C)(F)F)c4)c(F)c3)cn2)c1` [Compound P-0103, N-[5-(1,1-difluoroethyl)-3-pyridyl]-2-[2-fluoro-4-[2-[(1-methylimidazol-4-yl)amino]pyrimidin-5-yl]phenyl]acetamide]: the pIC50 (in test [1]; on FLT3-ITD) was 5.00 to 10.00 in each case.
As for `Cn1cc(Nc2ncc(-c3ccc(CC(=O)Nc4cnc(F)c(C(C)(F)F)c4)cc3)cn2)cn1` [Compound P-0104, N-[5-(1,1-difluoroethyl)-6-fluoro-3-pyridyl]-2-[4-[2-[(1-methylpyrazol-4-yl)amino]pyrimidin-5-yl]phenyl]acetamide], the pIC50 (in test [1]; at FLT3-ITD) was 5.00 to 10.00 in each case.
`Cn1cc(Nc2ncc(-c3ccc(CC(=O)Nc4cnc(F)c(C(C)(F)F)c4)c(F)c3)cn2)cn1` [Compound P-0105, N-[5-(1,1-difluoroethyl)-6-fluoro-3-pyridyl]-2-[2-fluoro-4-[2-[(1-methylpyrazol-4-yl)amino]pyrimidin-5-yl]phenyl]acetamide]: the pIC50 (in test [1]; on FLT3-ITD) was 5.00 to 10.00 in each case.
